From publication PMC10900215 (JACS Au, 2024)
Where “and” joins values, the source holds several entries; their conditions need not be identical. Equal entries are not always repeated.

Columns and labels:
METTL3-14 [1] = molecular target: T1, METTL3-14 (Homo sapiens, UniProt Q86U44); assay: Cellular degradation assay (Western blot) in KASUMI-1; format: cell-based; set-up: METTL3–14 degradation up to 70% of the endogenous level; endogenous in cells; host or cells: MOLM-13, KASUMI-1, THP-1, NOMO-1; conditions: KASUMI-1, 2 μM, 24 h
Procedure: (§1) MOLM-13, NOMO-1, THP-1, Kasumi-1, PC3, and DU145 cell lines were obtained from DSMZ-German Collection of Microorganisms and Cell Cultures GmbH. Cells were cultured in RPMI 1640 medium (11875093, Thermo Fisher Scientific) containing 10% FBS (16140071, Thermo Fisher Scientific) and 1% penicillin-streptomycin (15140122, Thermo Fisher Scientific) in 5% CO2 at 37 °C in a humidified incubator, with maintained cell densities at 0.5–1 × 10^6 cells/mL. All cell lines were tested negative for mycoplasma contamination (PCR-based assay by Microsynth, Switzerland).
(§2) METTL3 (and METTL14) protein degradation was monitored by Western blot. Cells were treated with the indicated concentration of PROTACs or DMSO control (0.1% (v/v)) for 24h, 37 °C with 5% CO2. Samples were then collected and lysed with RIPA buffer with added protease inhibitors (11697498001, Roche). After SDS-PAGE, proteins were transferred to a nitrocellulose membrane, blocked (with 5% milk, 0.5% BSA in TBST buffer), and incubated overnight with primary antibodies. The following antibodies were used: GAPDH (no. 2118, Cell Signaling, 1:4000), β-actin (ab8226, Abcam, 1:2000), METTL3 (ab195352, Abcam, 1:1000), and METTL14 (ab220031, Abcam, 1:1000). Membranes were scanned using an LI-COR Odyssey DLx imager after incubation with appropriate secondary antibodies (antimouse IgG IRDye 680RD (926–68072, LI-COR, 1:10000) and goat anti-Rabbit IgG IRDye 800CW (926–32211, LI-COR, 1:10000)). Densitometry was performed in Image Studio Lite software and analyzed in GraphPad Prism 9.

METTL3-14 [2] = molecular target: T1, METTL3-14; assay: Cellular degradation assay (Western blot) in NOMO-1; format: cell-based; set-up: METTL3–14 degradation up to 70% of the endogenous level; endogenous in cells; host or cells: MOLM-13, KASUMI-1, THP-1, NOMO-1; conditions: NOMO-1, 2 μM, 24 h
Procedure: as §1, §2

[3] = Cell viability assay (CellTiter-Glo) on MOLM-13; format: cell-based; conditions: human, MOLM-13 cells, average of two biological replicates; for viability at 72 h, […]: 2.5 µM
Outline: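 MOLM-13 AML cells grown in RPMI 1640 with 10% FBS at 37 °C, 5% CO2. Viability read as ATP luminescence by CellTiter-Glo after 10 min at room temperature, with background from cell-free medium wells subtracted.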

PC3 cell line = assay: Cell viability assay (CellTiter-Glo) on PC3; format: cell-based, human
Procedure: as §1
Cells were seeded in white clear-bottom 96-well plates at a density of 6–20 × 10^3 cells/well in 50 μL of the complete RPMI medium and treated with 50 μL of increasing concentrations of the indicated compounds dissolved in DMSO (final concentration of compounds 0.01–10 μM) or DMSO only as a negative control (0.01% (v/v)) and incubated for 72 h at 37 °C with 5% CO2. Cell viability was determined using a CellTiter-Glo luminescent cell viability assay (Promega) based on the detection of ATP according to the manufacturer’s instructions. 100 μL of the reagent was added to each well and incubated for 10 min at room temperature. The luminescence was recorded using a Tecan Infinite […] M1000 microplate reader from the top. Background luminescence value was obtained from wells containing the CellTiter-Glo reagent and medium without cells. The resulting data was analyzed in GraphPad Prism 9.

METTL3 [4] = molecular target: T2, METTL3 (Homo sapiens, UniProt Q86U44); assay: Cellular degradation assay (Western blot) in DU145; format: cell-based; conditions: DU145, 2 μM, 24 h
T2 construct: METTL3–14 degradation up to 70% of the endogenous level; endogenous in cells; host or cells: MOLM-13, PC3, DU145
Procedure: as §1, §2

METTL3 [5] = molecular target: T2, METTL3; assay: Cellular degradation assay (Western blot), METTL3 in MOLM-13; format: cell-based; conditions: for MOLM-13 West. blot at 24h 2 μM comp conc. Degradation (%) of METTL3: MOLM-13, 24 h, 2 μM compound
Outline: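 Protein loss was assessed after a 24h PROTAC treatment at 37 °C; blots probed for METTL3 and METTL14 with GAPDH or β-actin as reference were scanned by infrared fluorescence.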

[6] = system: m6A/A levels in polyadenylated RNA; assay: UPLC-MS/MS quantification of m6A/A in polyadenylated RNA in MOLM-13; format: cell-based, human; conditions: MOLM-13, 2 μM, 24 h
Procedure: UPLC-MS/MS was performed as previously described.[28]
Briefly, MOLM-13 cells were seeded into 6 well plates at a density of 1 × 10^6 cells/mL in 2 mL of complete RPMI medium. Cells were treated with the indicated concentrations of compounds or DMSO control (final concentration 0.5% (v/v)) for 24 h. Following the incubation, cells were collected by centrifugation and washed once with PBS, and total RNA was extracted using 0.5 mL of GENEzol reagent according to the manufacturer’s instructions. The final volume of 50 μL of total RNA eluate was subjected to two rounds of purification using 25 μL of Sera-Mag magnetic oligo(dT) particles (Cytiva) per sample. The polyadenylated RNA was eluted with nuclease-free water in a final volume of 25 μL, and its concentration was determined using NanoDrop. One hundred nanograms of mRNA were digested to nucleosides and dephosphorylated in a one-pot reaction using 0.5 μL of nucleoside digestion mix (M0649S, NEB) in 25 μL of total reaction volume for 4 h at 37 °C. The samples were used for UPLC-MS/MS analysis without further purification steps. The data were plotted by using GraphPad Prism 9.

METTL3 [7] = molecular target: T2, METTL3; assay: Cellular degradation assay (Western blot) in PC3; format: cell-based; conditions: PC3, 2 μM, 24 h
Procedure: as §1
as §2, with “Membranes were scanned using an LI-COR Odyssey DLx imager after incubation with appropriate secondary antibodies (antimouse IgG IRDye 680RD (926–68072, LI-COR, 1:10000) and goat anti-Rabbit IgG IRDye 800CW (926–32211, LI-COR, 1:10000)).” left out

T2 sequence (Q86U44 2-580 limits assumed): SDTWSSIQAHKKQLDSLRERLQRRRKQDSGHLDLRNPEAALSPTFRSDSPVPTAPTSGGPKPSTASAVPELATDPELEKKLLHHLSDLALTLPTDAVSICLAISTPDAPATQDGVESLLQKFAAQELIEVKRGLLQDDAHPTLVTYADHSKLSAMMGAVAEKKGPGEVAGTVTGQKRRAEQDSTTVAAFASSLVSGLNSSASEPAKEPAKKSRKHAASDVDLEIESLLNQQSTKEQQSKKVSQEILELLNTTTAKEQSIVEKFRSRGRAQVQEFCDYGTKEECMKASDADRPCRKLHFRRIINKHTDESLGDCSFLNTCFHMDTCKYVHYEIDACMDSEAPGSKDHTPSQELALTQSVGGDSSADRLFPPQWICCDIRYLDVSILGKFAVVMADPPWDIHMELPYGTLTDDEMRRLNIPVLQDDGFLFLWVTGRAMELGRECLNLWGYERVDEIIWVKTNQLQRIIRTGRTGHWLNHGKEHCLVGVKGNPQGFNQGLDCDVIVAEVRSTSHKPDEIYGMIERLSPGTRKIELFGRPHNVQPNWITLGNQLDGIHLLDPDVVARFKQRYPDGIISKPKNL
T2 sequence (Q9HCE5 whole entry partner): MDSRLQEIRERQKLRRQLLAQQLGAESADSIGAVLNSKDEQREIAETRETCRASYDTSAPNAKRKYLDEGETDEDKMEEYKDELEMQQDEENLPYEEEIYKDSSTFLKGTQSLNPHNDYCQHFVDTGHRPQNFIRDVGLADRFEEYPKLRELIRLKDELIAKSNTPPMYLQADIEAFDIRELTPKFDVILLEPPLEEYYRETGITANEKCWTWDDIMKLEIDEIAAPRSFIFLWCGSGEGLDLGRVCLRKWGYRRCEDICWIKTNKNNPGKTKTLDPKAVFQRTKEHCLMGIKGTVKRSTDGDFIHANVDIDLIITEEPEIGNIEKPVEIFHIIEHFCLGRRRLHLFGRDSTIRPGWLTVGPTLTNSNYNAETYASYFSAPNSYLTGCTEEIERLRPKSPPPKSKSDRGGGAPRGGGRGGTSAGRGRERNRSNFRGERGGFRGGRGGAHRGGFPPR
T1 sequence (Q86U44 2-580 limits assumed): as the sequence (Q86U44 2-580 limits assumed) above
T1 sequence (Q9HCE5 whole entry partner): as the sequence (Q9HCE5 whole entry partner) above

CC1(C)CCN(Cc2cc(F)c(N3CC(=O)NC4(CCN(c5cc(NCC6CCN(C(=O)CCCCCNc7cccc8c7C(=O)N(C7CCC(=O)NC7=O)C8=O)CC6)ncn5)CC4)C3)cc2F)CC1 (stereo not shown) [Compound 24]
degradation of both METTL3 and METTL14 relative to MOLM-13 (METTL3-14 [1]): higher degradation | degradation levels of METTL3 and METTL14 (METTL3-14 [2]): comparable to those in MOLM-13 | viability at 72 h, 0.6 µM [3]: 102% | viability at 72 h, 1.25 µM [3]: 95.2% | viability at 72 h, […] [3]: 109% | viability at 72 h, 5 µM [3]: 104% | viability at 72 h, 10 µM [3]: 91% | antiproliferative effect (PC3 cell line): antiproliferative effect | effect on METTL3 level (METTL3 [4]): only a minor effect | MOLM-13 West. blot at 24h 2 μM comp conc. Degradation (%) of METTL3 (METTL3 [5]): 36% and 36 ± 9%

CC1(C)CCN(Cc2cc(F)c(N3CC(=O)NC4(CCN(c5cc(NCCN6CCN(C(=O)CCCCCNc7cccc8c7C(=O)N(C7CCC(=O)NC7=O)C8=O)CC6)ncn5)CC4)C3)cc2F)CC1 (stereo not shown) [Compound 30]
degradation of both METTL3 and METTL14 relative to MOLM-13 (METTL3-14 [1]): higher degradation | degradation of the POI (METTL3-14 [1]): 70% | degradation levels of METTL3 and METTL14 (METTL3-14 [2]): comparable to those in MOLM-13 | viability at 72 h, 0.6 µM [3]: 91.3% | viability at 72 h, 1.25 µM [3]: 90.9% | viability at 72 h, […] [3]: 91.1% | viability at 72 h, 5 µM [3]: 82.5% | viability at 72 h, 10 µM [3]: 78.4% | antiproliferative effect (PC3 cell line): antiproliferative effect | effect on METTL3 level (METTL3 [4]): only a minor effect

CC1(C)CCN(Cc2cc(F)c(N3CC(=O)NC4(CCN(c5cc(NCC6CCN(C(=O)CCCNc7cccc8c7C(=O)N(C7CCC(=O)NC7=O)C8=O)CC6)ncn5)CC4)C3)cc2F)CC1 (stereo not shown) [Compound 22]
degradation of both METTL3 and METTL14 relative to MOLM-13 (METTL3-14 [1]): higher degradation | m6A/A levels [6]: slight reduction | reduction of METTL3 (METTL3 [7]): 64% | degradation levels of METTL3 and METTL14 (METTL3-14 [2]): comparable to those in MOLM-13 | viability at 72 h, 0.6 µM [3]: 95.8% | viability at 72 h, 1.25 µM [3]: 97.8% | viability at 72 h, […] [3]: 96.2% | viability at 72 h, 5 µM [3]: 88.4% | viability at 72 h, 10 µM [3]: 77.4% | antiproliferative effect (PC3 cell line): antiproliferative effect | effect on METTL3 level (METTL3 [4]): only a minor effect | MOLM-13 West. blot at 24h 2 μM comp conc. Degradation (%) of METTL3 (METTL3 [5]): 46% and 46 ± 6%

CC1(C)CCN(Cc2cc(F)c(N3CC(=O)NC4(CCN(c5cc(NCc6cccc(CNC(=O)CCCCCCCCCCn7cc(CNc8cccc9c8C(=O)N(C8CCC(=O)NC8=O)C9=O)nn7)c6)ncn5)CC4)C3)cc2F)CC1 (stereo not shown) [Compound 20]
degradation of both METTL3 and METTL14 relative to MOLM-13 (METTL3-14 [1]): higher degradation | reduction of METTL3 (METTL3 [7]): 48% | degradation levels of METTL3 and METTL14 (METTL3-14 [2]): comparable to those in MOLM-13 | viability at 72 h, 0.6 µM [3]: 101% | viability at 72 h, 1.25 µM [3]: 94.6% | viability at 72 h, […] [3]: 90.7% | viability at 72 h, 5 µM [3]: 89.5% | viability at 72 h, 10 µM [3]: 86.4% | effect on METTL3 level (METTL3 [4]): only a minor effect | MOLM-13 West. blot at 24h 2 μM comp conc. Degradation (%) of METTL3 (METTL3 [5]): 42% and 42 ± 13%

CC1(C)CCN(Cc2cc(F)c(N3CC(=O)NC4(CCN(c5cc(NCc6cccc(CNC(=O)CCCNc7cccc8c7C(=O)N(C7CCC(=O)NC7=O)C8=O)c6)ncn5)CC4)C3)cc2F)CC1 (stereo not shown) [Compound 14]
degradation of both METTL3 and METTL14 relative to MOLM-13 (METTL3-14 [1]): higher degradation | degradation levels of METTL3 and METTL14 (METTL3-14 [2]): comparable to those in MOLM-13 | viability at 72 h, 0.6 µM [3]: 95.5% | viability at 72 h, 1.25 µM [3]: 97.5% | viability at 72 h, […] [3]: 103% | viability at 72 h, 5 µM [3]: 102% | viability at 72 h, 10 µM [3]: 94.1% | effect on METTL3 level (METTL3 [4]): only a minor effect | METTL3 reduction at highest effect in concentration dependence (METTL3 [5]; MOLM-13, 1 μM): around 50% | MOLM-13 West. blot at 24h 2 μM comp conc. Degradation (%) of METTL3 (METTL3 [5]): 52% and 52 ± 8%
